pIC50: −log10 of the molar value.
Key:
[1] = test system: spindle assembly checkpoint (Mps-1) in HeLa cells; test: cells; type: cell-based; settings: Homo sapiens; HeLa cells arrested with nocodazole, 4 h with test compound, phospho-histone H3 (Ser10) readout; read-out: SAC
Source text: Spindle Assembly Checkpoint Assay
The spindle assembly checkpoint assures the proper segregation of chromosomes during mitosis. Upon entry into mitosis, chromosomes begin to condensate which is accompanied by the phosphorylation of histone H3 on serine 10. Dephosphorylation of histone H3 on serine 10 begins in anaphase and ends at early telophase. Accordingly, phosphorylation of histone H3 on serine 10 can be utilized as a marker of cells in mitosis. Nocodazole is a microtubule destabilizing substance. Thus, nocodazole interferes with microtubule dynamics and mobilises the spindle assembly checkpoint. […] An inhibition of the spindle assembly checkpoint by Mps-1 inhibitors overrides the mitotic blockage in the presence of nocodazole, and the cells complete mitosis prematurely. This alteration is detected by the decrease of cells with phosphorylation of histone H3 on serine 10. This decline is used as a marker to determine the capability of compounds of the present invention to induce a mitotic breakthrough.
Cultivated cells of the human cervical tumour cell line HeLa (ATCC CCL-2) were plated at a density of 2500 cells/well in a 384-well microtiter plate in 20 μl Dulbeco's Medium (w/o phenol red, w/o sodium pyruvate, w 1000 mg/ml glucose, w pyridoxine) supplemented with 1% (v/v) glutamine, 1% (v/v) penicillin, 1% (v/v) streptomycin and 10% (v/v) fetal calf serum. After incubation overnight at 37° C., 10 μl/well nocodazole at a final concentration of 0.1 μg/ml were added to cells. After 24 h incubation, cells were arrested at G2/M phase of the cell cycle progression. […] Images were acquired with a Perkin Elmer OPERA™ High-Content Analysis reader. Images were analyzed with image analysis software MetaXpress™ from Molecular devices utilizing the Cell Cycle application module. […] The raw assay data were further analysed by four parameter logistic regression analysis to determine the IC50 value for each tested compound.

[2] = test system: HeLa cells; test: Proliferation Assay with HeLa cells; type: cell-based; settings: Homo sapiens, 96 h, 4 days incubation, crystal violet staining
Method: After 24 hours, the cells of one plate (zero-point plate) were stained with crystal violet (see below), while the medium of the other plates was replaced by fresh culture medium (200 μl), to which the test substances were added in various concentrations (0 μM, as well as in the range of 0.01-30 μM; the final concentration of the solvent dimethyl sulfoxide was 0.5%). The cells were incubated for 4 days in the presence of test substances. […] After three washing cycles of the fixed cells with water, the plates were dried at room temperature. The cells were stained by adding 100 μl/measuring point of a 0.1% crystal violet solution (pH 3.0). After three washing cycles of the stained cells with water, the plates were dried at room temperature. The dye was dissolved by adding 100 μl/measuring point of a 10% acetic acid solution. The extinction was determined by photometry at a wavelength of 595 nm. The change of cell number, in percent, was calculated by normalization of the measured values to the extinction values of the zero-point plate (=0%) and the extinction of the untreated (0 μm) cells (=100%). The IC50 values were determined by means of a 4 parameter fit using the company's own software.

[3] = In vitro metabolic stability in rat hepatocytes; type: in vitro ADME; settings: maximal oral bioavailability calculated from half-life in Han Wistar rat hepatocytes, 1 μM test compound
Method: Investigation of In Vitro Metabolic Stability in Rat Hepatocytes (Including Calculation of Hepatic In Vivo Blood Clearance (CL)) Hepatocytes from Han Wistar rats were isolated via a 2-step perfusion method. After perfusion, the liver was carefully removed from the rat: the liver capsule was opened and the hepatocytes were gently shaken out into a Petri dish with ice-cold WME. The resulting cell suspension was filtered through sterile gaze in 50 ml falcon tubes and centrifuged at 50×g for 3 min at room temperature. The cell pellet was resuspended in 30 ml WME and centrifuged through a Percoll® gradient for 2 times at 100×g. The hepatocytes were washed again with Williams' medium E (WME) and resuspended in medium containing 5% FCS. Cell viability was determined by trypan blue exclusion. For the metabolic stability assay liver cells were distributed in WME containing 5% FCS to glass vials at a density of 1.0×10^6 vital cells/mL. […] During incubation, the hepatocyte suspensions were continuously shaken and aliquots were taken at 2, 8, 16, 30, 45 and 90 min, to which equal volumes of cold methanol were immediately added. Samples were frozen at −20° C. over night, after subsequently centrifuged for 15 minutes at 3000 rpm and the supernatant was analyzed with an Agilent 1200 HPLC-system with LCMS/MS detection. The half-life of a test compound was determined from the concentration-time plot. From the half-life the intrinsic clearances were calculated. Together with the additional parameters liver blood flow, amount of liver cells in vivo and in vitro. The hepatic in vivo blood clearance (CL) and the maximal oral bioavailability (Fmax) was calculated. The following parameter values were used: Liver blood flow—4.2 L/h/kg rat; specific liver weight—32 g/kg rat body weight; liver cells in vivo—1.1×10^8 cells/g liver, liver cells in vitro—0.5×10^6/ml.

[4] = target: T1, human CYP3A4 (Homo sapiens (Human), UniProt P08684); test: Determination of inhibitory potential on human CYP3A4; type: in vitro ADME; settings: human liver microsomes, midazolam as probe substrate
T1 sequence (P08684 whole entry): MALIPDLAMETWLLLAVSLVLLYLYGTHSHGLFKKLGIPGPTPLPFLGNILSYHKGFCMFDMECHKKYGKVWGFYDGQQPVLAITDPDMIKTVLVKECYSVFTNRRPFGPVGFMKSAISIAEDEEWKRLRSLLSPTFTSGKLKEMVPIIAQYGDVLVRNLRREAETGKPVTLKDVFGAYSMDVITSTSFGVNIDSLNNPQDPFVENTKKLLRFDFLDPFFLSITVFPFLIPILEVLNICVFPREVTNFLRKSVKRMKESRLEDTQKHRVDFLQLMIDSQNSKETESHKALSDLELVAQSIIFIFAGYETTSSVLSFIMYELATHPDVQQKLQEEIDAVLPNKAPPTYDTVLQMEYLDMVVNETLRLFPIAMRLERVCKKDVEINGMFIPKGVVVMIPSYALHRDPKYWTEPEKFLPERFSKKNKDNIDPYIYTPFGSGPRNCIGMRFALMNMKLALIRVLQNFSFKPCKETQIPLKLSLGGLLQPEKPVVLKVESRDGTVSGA
Method: Determination of Inhibitory Potential on Human CYP3A4
The potential of the test compound to act as a competitive inhibitor of CYP3A4 was evaluated in in vitro assays, using human liver microsomes and the reference substrate midazolam. The test compound was solved in acetonitrile. Human liver microsomal preparation (pool of HLM) was applied for the assay. A stock solution of the test compound was added to phosphate buffer containing EDTA, NADP, glucose 6-phosphate, and glucose 6-phosphate dehydrogenase. This mixture was sequentially diluted on a Genesis Workstation (Tecan, Crailsheim, FRG). After pre-warming, reaction was initiated by addition of a mixture of probe substrate (midazolam). […] The reference samples (substrate, but no inhibitor) were incubated in parallel in sextuple and contained the same amount of solvent as the test incubations. Reactions were stopped by addition of 100 μL acetonitrile containing the internal standard. Precipitated proteins were removed by centrifugation of the well plate, supernatants were analyzed by LC-MS/MS.
The CYP3A4-mediated metabolic activity in the presence of the test compounds was expressed as percentages of the corresponding reference value. A sigmoid-shaped curve was fitted to the data to calculate the enzyme inhibition parameter IC50 using a nonlinear least-squares regression analysis of the plot of percent control activity versus concentration of the test inhibitor.

[5] = target: T1, human CYP3A4; test: Determination of mechanism-based inhibition of human CYP3A4; type: in vitro ADME; settings: irreversible CYP3A4 inactivation; inactivator molecules metabolized per CYP3A4 molecule inactivated; testosterone substrate
Method: Determination of Mechanism-Based Inhibition of Human CYP3A4
The test compound was incubated at 37° C. in a concentration-NADPH-, and time-dependent setting. Therefore, the test compound was incubated at 4 different concentrations (e.g.: 1, 2, 5, 10 μM) in the presence of NADPH ([…]) and regenerating system in phosphate-buffered saline ([…], pH 7.4) The highest concentration of test compound was incubated without NADPH and therefore served as the NADPH-deficient control. In addition, acetonitrile as a vehicle control (negative control) and mibefradil as positive control for irreversible CYP3A4 inactivation were also included using identical assay conditions.
Each mixture was incubated with the enzyme (preincubation) for up to 50 minutes.
Afterwards, the reaction in the main incubation was stopped by the addition of acetonitrile (containing an internal standard), the protein was allowed to precipitate by placing the mixture into an ice bath. Subsequently, the mixture was centrifuged to pelletize the protein and the supernatants were analyzed by HPLC-MS for the isoform specific metabolite e.g. […] and the remaining amount of the test compound.
In parallel the turnover of the substrate was plotted against the preincubation time.

Row | SMILES | pIC50 [1] | pIC50 [2] | Fmax rat hep [3] [%] | pIC50 [4] | CYP3A4 partition ratio [5]
1 | COc1ccc(Oc2cc(NCC3COC3)c3ncc(-c4ccc(C(=O)NC5CC5)c(C)c4)n3n2)cc1F [Example 1, N-cyclopropyl-4-{6-(3-fluoro-4-methoxyphenoxy)-8-[(oxetan-3-ylmethyl)amino]imidazo[1,2-b]pyridazin-3-yl}-2-methylbenzamide] | 9.01 | 8.54 | 44 | < 5.30 | 105
2 | COc1ccc(Oc2cc(NCCC(F)(F)F)c3ncc(-c4ccc(C(=O)NC5CC5)c(C)c4)n3n2)c(F)c1F [Example 2, N-cyclopropyl-4-{6-(2,3-difluoro-4-methoxyphenoxy)-8-[(3,3,3-trifluoropropyl)amino]imidazo[1,2-b]pyridazin-3-yl}-2-methylbenzamide] |  | 8.11 | 72 |  | 
3 | COc1ccc(Oc2cc(NCC3CCOCC3)c3ncc(-c4ccc(C(=O)NC5CC5)c(C)c4)n3n2)c(F)c1F [Example 3, N-cyclopropyl-4-{6-(2,3-difluoro-4-methoxyphenoxy)-8-[(tetrahydro-2H-pyran-4-ylmethyl)amino]imidazo[1,2-b]pyridazin-3-yl}-2-methylbenzamide] | 10.10 | 7.74 | 39 | < 5.00 | 33
4 | Cc1cc(-c2cnc3c(NCCC(F)(F)F)cc(Oc4cccc(F)c4)nn23)ccc1C(=O)NC1CC1 [Ref., N-cyclopropyl-4-{6-(3-fluorophenoxy)-8-[(3,3,3-trifluoropropyl)amino]imidazo[1,2-b]pyridazin-3-yl}-2-methylbenzamide, reference compound] | 9.28 | 7.64 | 38 | < 5.00 | 3

Reference: patent publication US9512130B2, “Substituted imidazopyridazines” (BAYER PHARMA AKTIENGESELLSCHAFT, priority 2013, dated 2016)
